Test results taken from PubChem BioAssay (NCI).
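Five compound concentrations were applied to cells in 96-well plates for 48 hours; endpoints were derived by simple linear interpolation of the resulting dose-response curve. TGI is the concentration that stops growth completely.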

Legend:
Test in all cases: DTP human tumour cell line panel, 48 h
[1] = test system: KM12 colon
[2] = test system: MALME-3M melanoma
[3] = test system: SN12C renal
[4] = test system: XF 498 CNS
[5] = test system: SK-MEL-5 melanoma
[6] = test system: TK-10 renal
[7] = test system: DMS 114 small cell lung
[8] = test system: 786-0 renal
[9] = test system: A549 NSCLC
[10] = test system: NCI-H226 lung
[11] = test system: ACHN renal
[12] = test system: NCI-H23 lung
[13] = test system: SK-OV-3 ovarian
[14] = test system: RXF-631 renal
[15] = test system: DLD-1 colon
[16] = test system: SK-MEL-2 melanoma
[17] = test system: SK-MEL-28 melanoma
[18] = test system: NCI-H522 lung
[19] = test system: SF-268 CNS
[20] = test system: SNB-75 CNS
[21] = test system: COLO 205 colon
[22] = test system: HT29 colon
[23] = test system: IGROV1 ovarian
[24] = test system: UO-31 renal
[25] = test system: OVCAR-5 ovarian
[26] = test system: UACC-257 melanoma
[27] = test system: K-562 leukemia
[28] = test system: MOLT-4 leukemia
[29] = test system: M19-MEL melanoma
[30] = test system: RPMI-8226 leukemia
[31] = test system: HOP-62 NSCLC
[32] = test system: HCC-2998 colon
[33] = test system: CCRF-CEM leukemia
[34] = test system: SW-620 colon
[35] = test system: OVCAR-3 ovarian
[36] = test system: EKVX NSCLC
[37] = test system: OVCAR-4 ovarian
[38] = test system: DMS 273 small cell lung
[39] = test system: HCT-116 colon
[40] = test system: UACC-62 melanoma
[41] = test system: SF-295 CNS
[42] = test system: OVCAR-8 ovarian
[43] = test system: SR leukemia
[44] = test system: A498 renal
[45] = test system: U251 CNS
[46] = test system: SNB-78 CNS
[47] = test system: LOX IMVI melanoma
[48] = test system: CAKI-1 renal
[49] = test system: SNB-19 CNS
[50] = test system: SF-539 CNS
[51] = test system: LXFL 529 NSCLC
[52] = test system: HOP-92 NSCLC
[53] = test system: NCI-H460 lung
[54] = test system: HOP-18 NSCLC
[55] = test system: M14 melanoma
[56] = test system: HL-60(TB) leukemia
[57] = test system: HCT-15 colon
[58] = test system: KM20L2 colon
[59] = test system: RXF 393 renal

Compound: C#CCOCn1cnc2c(Cl)ncnc21
- TGI [1]: > 100 µM
- TGI [2]: > 100 µM
- TGI [3]: > 100 µM
- TGI [4]: > 100 µM
- TGI [5]: > 100 µM
- TGI [6]: > 100 µM
- TGI [7]: > 100 µM
- TGI [8]: > 100 µM
- TGI [9]: > 100 µM
- TGI [10]: > 100 µM
- TGI [11]: > 100 µM
- TGI [12]: > 100 µM
- TGI [13]: > 100 µM
- TGI [14]: > 100 µM
- TGI [15]: > 100 µM
- TGI [16]: > 100 µM
- TGI [17]: > 100 µM
- TGI [18]: > 100 µM
- TGI [19]: > 100 µM
- TGI [20]: > 100 µM
- TGI [21]: > 100 µM
- TGI [22]: > 100 µM
- TGI [23]: > 100 µM
- TGI [24]: > 100 µM
- TGI [25]: > 100 µM
- TGI [26]: > 100 µM
- TGI [27]: > 100 µM
- TGI [28]: > 100 µM
- TGI [29]: > 100 µM
- TGI [30]: > 100 µM
- TGI [31]: > 100 µM
- TGI [32]: > 100 µM
- TGI [33]: > 100 µM
- TGI [34]: > 100 µM
- TGI [35]: > 100 µM
- TGI [36]: > 100 µM
- TGI [37]: > 100 µM
- TGI [38]: > 100 µM
- TGI [39]: > 100 µM
- TGI [40]: > 100 µM
- TGI [41]: > 100 µM
- TGI [42]: > 100 µM
- TGI [43]: > 100 µM
- TGI [44]: > 100 µM
- TGI [45]: > 100 µM
- TGI [46]: > 100 µM
- TGI [47]: > 100 µM
- TGI [48]: > 100 µM
- TGI [49]: > 100 µM
- TGI [50]: > 100 µM
- TGI [51]: > 100 µM
- TGI [52]: > 100 µM
- TGI [53]: > 100 µM
- TGI [54]: > 100 µM
- TGI [55]: > 100 µM

Compound: Cc1[nH]ccc2c1[nH]c1cc(=O)ccc12
- TGI [1]: > 100 µM
- TGI [2]: > 100 µM
- TGI [3]: > 100 µM
- TGI [4]: > 100 µM
- TGI [5]: > 100 µM
- TGI [6]: > 100 µM
- TGI [7]: > 100 µM
- TGI [8]: > 100 µM
- TGI [9]: > 100 µM
- TGI [10]: > 100 µM
- TGI [11]: > 100 µM
- TGI [12]: > 100 µM
- TGI [13]: > 100 µM
- TGI [14]: > 100 µM
- TGI [15]: > 100 µM
- TGI [16]: > 100 µM
- TGI [17]: > 100 µM
- TGI [19]: > 100 µM
- TGI [20]: > 100 µM
- TGI [21]: > 100 µM
- TGI [22]: > 100 µM
- TGI [23]: > 100 µM
- TGI [24]: > 100 µM
- TGI [25]: > 100 µM
- TGI [26]: > 100 µM
- TGI [27]: > 100 µM
- TGI [28]: 85.9 µM
- TGI [29]: > 100 µM
- TGI [56]: > 100 µM
- TGI [30]: > 100 µM
- TGI [31]: > 100 µM
- TGI [32]: > 100 µM
- TGI [33]: > 100 µM
- TGI [34]: > 100 µM
- TGI [35]: > 100 µM
- TGI [36]: > 100 µM
- TGI [37]: > 100 µM
- TGI [38]: > 100 µM
- TGI [39]: > 100 µM
- TGI [40]: > 100 µM
- TGI [41]: > 100 µM
- TGI [42]: > 100 µM
- TGI [44]: > 100 µM
- TGI [57]: > 100 µM
- TGI [58]: > 100 µM
- TGI [45]: > 100 µM
- TGI [46]: > 100 µM
- TGI [47]: > 100 µM
- TGI [48]: > 100 µM
- TGI [49]: > 100 µM
- TGI [50]: > 100 µM
- TGI [59]: > 100 µM
- TGI [51]: > 100 µM
- TGI [52]: > 100 µM
- TGI [53]: > 100 µM
- TGI [54]: > 100 µM
- TGI [55]: > 100 µM

Compound: Cc1ccc(N=Cc2ccc3c(c2)OCO3)cc1C
- TGI [1]: > 100 µM
- TGI [2]: > 100 µM
- TGI [3]: > 100 µM
- TGI [4]: > 100 µM
- TGI [5]: > 100 µM
- TGI [6]: > 100 µM
- TGI [8]: > 100 µM
- TGI [9]: > 100 µM
- TGI [10]: > 100 µM
- TGI [11]: > 100 µM
- TGI [12]: > 100 µM
- TGI [13]: > 100 µM
- TGI [14]: > 100 µM
- TGI [15]: > 100 µM
- TGI [16]: > 100 µM
- TGI [17]: > 100 µM
- TGI [18]: > 100 µM
- TGI [19]: > 100 µM
- TGI [20]: > 100 µM
- TGI [21]: > 100 µM
- TGI [22]: > 100 µM
- TGI [23]: > 100 µM
- TGI [24]: > 100 µM
- TGI [25]: > 100 µM
- TGI [28]: > 100 µM
- TGI [29]: > 100 µM
- TGI [56]: > 100 µM
- TGI [30]: > 100 µM
- TGI [33]: > 100 µM
- TGI [34]: > 100 µM
- TGI [35]: > 100 µM
- TGI [36]: > 100 µM
- TGI [38]: > 100 µM
- TGI [39]: > 100 µM
- TGI [40]: > 100 µM
- TGI [41]: > 100 µM
- TGI [42]: > 100 µM
- TGI [43]: > 100 µM
- TGI [44]: > 100 µM
- TGI [57]: > 100 µM
- TGI [58]: > 100 µM
- TGI [46]: > 100 µM
- TGI [47]: > 100 µM
- TGI [48]: > 100 µM
- TGI [49]: > 100 µM
- TGI [50]: > 100 µM
- TGI [59]: > 100 µM
- TGI [51]: > 100 µM
- TGI [52]: > 100 µM
- TGI [53]: > 100 µM
- TGI [54]: > 100 µM
- TGI [55]: > 100 µM

Compound: COc1cc(C(=O)C/C(CCCC(=O)Nc2ccccc2[N+](=O)[O-])=N/NC(=O)c2cc3ccccc3cc2O)ccc1O
- TGI [1]: 82.5 µM
- TGI [2]: > 100 µM
- TGI [3]: > 100 µM
- TGI [4]: > 100 µM
- TGI [5]: > 83.7 µM
- TGI [6]: > 100 µM
- TGI [8]: > 100 µM
- TGI [9]: > 100 µM
- TGI [10]: > 100 µM
- TGI [11]: 98.3 µM
- TGI [12]: > 100 µM
- TGI [13]: 95.7 µM
- TGI [14]: > 100 µM
- TGI [15]: > 95 µM
- TGI [16]: > 100 µM
- TGI [17]: > 100 µM
- TGI [18]: > 100 µM
- TGI [19]: > 100 µM
- TGI [20]: > 100 µM
- TGI [21]: 63.2 µM
- TGI [22]: > 100 µM
- TGI [23]: > 100 µM
- TGI [24]: > 100 µM
- TGI [25]: > 100 µM
- TGI [26]: 82 µM
- TGI [27]: > 100 µM
- TGI [28]: 77 µM
- TGI [56]: 51.3 µM
- TGI [30]: > 100 µM
- TGI [31]: > 100 µM
- TGI [32]: > 76.2 µM
- TGI [33]: > 31.6 µM
- TGI [34]: > 100 µM
- TGI [35]: > 100 µM
- TGI [36]: > 84.7 µM
- TGI [37]: > 100 µM
- TGI [38]: 43.6 µM
- TGI [39]: > 100 µM
- TGI [40]: 53.2 µM
- TGI [41]: > 100 µM
- TGI [42]: > 100 µM
- TGI [44]: > 100 µM
- TGI [57]: > 74.3 µM
- TGI [58]: > 91.1 µM
- TGI [45]: > 100 µM
- TGI [46]: > 100 µM
- TGI [47]: > 65.4 µM
- TGI [48]: > 100 µM
- TGI [49]: > 100 µM
- TGI [50]: > 100 µM
- TGI [59]: > 100 µM
- TGI [52]: > 100 µM
- TGI [53]: > 100 µM
- TGI [54]: > 100 µM
- TGI [55]: 50.2 µM
